Consider 78 molecules from PMC12040169 (PLOS Biology, 2025).

The nature of the data set: in vitro. To be noted: human, hela cells, % viability.

In the case of `CC(C)(C)c1nsc(NC2CCCCCC2)n1` [CBK075061], the viability (as a rule, a read-out of living cells in per cent, often relative to untreated cells) at 28.5 h, 10 µM stood at 96.6%.

With `CC(C)(Oc1ccc(Cl)cc1)C(=O)O/N=C(\N)c1ccc(I)cc1` [CBK268760], the viability at 28.5 h, 10 µM stood at 97.2%.

Turning to `O=S(=O)(NCCN1CCOCC1)c1ccc(Cl)c(Cl)c1Cl` [CBK264973], the viability at 28.5 h, 10 µM worked out at 109%.

Regarding `c1ccc2c(CCN3CCC[C@@H]3CN3CCCC3)c[nH]c2c1` [CBK149104], the viability at 28.5 h, 10 µM is 87.4%.

As for `CCc1ccc(C(O)CNC2CCN(c3nccs3)CC2)cc1` (stereo not drawn) [CBK304215], the viability at 28.5 h, 10 µM is 94.3%.

Take `CC(C)[C@H](CO)Nc1nc(-c2cccc3ccccc23)cnc1N` [CBK063701]: the viability at 28.5 h, 10 µM was found to be 101%.

For `Cc1cccn2cc(CC(=O)NC3(C#N)CCCCC3)nc12` [CBK306252], the viability at 28.5 h, 10 µM worked out at 95.2%.

In the case of `C=CCNC(=O)N[C@H]1[C@H](O)[C@@H](N2CCC(C(=O)OC)CC2)[C@@H]2OC[C@H]1O2` [CBK288807], the viability at 28.5 h, 10 µM worked out at 82.1%.

As for `Oc1ccccc1C(=S)N1CCCCC1` [CBK027552], the viability at 28.5 h, 10 µM was determined as 92.8%.

Consider `O=C(Nc1cccc2c1CCCC2)c1cnc2n(c1=O)CCS2` [CBK287379], for which the viability at 28.5 h, 10 µM came out at 105%.

For the molecule `CC(Sc1ccccn1)C(=O)Nc1ccc(S(N)(=O)=O)cc1` (stereo not drawn) [CBK265579], the viability at 28.5 h, 10 µM is 97.1%.

For the molecule `CNc1ncc(CN(C)C(=O)Cn2nc(C)c3ccccc3c2=O)cn1` [CBK307704], the viability at 28.5 h, 10 µM came out at 85.5%.

With `O=C(Nc1ccc(Cl)cc1)N1Cc2nc[nH]c2C[C@H]1c1nc(-c2ccncc2)no1` [CBK288964], the viability at 28.5 h, 10 µM amounted to 91.4%.

`Cc1cc(O)ccc1Nc1cc(-c2cc3ccccc3s2)ncn1` [CBK091057]: the viability at 28.5 h, 10 µM was found to be 87%.

Turning to `O=C(NCCn1c(-c2ccncc2)nc2ccccc21)c1ccc(F)c(F)c1` [CBK288577], the viability at 28.5 h, 10 µM came to 88.9%.

Turning to `COc1ccc(CN2CCN(Cc3cccnc3)CC2)cc1OC` [CBK074409G], the viability at 28.5 h, 10 µM amounted to 94.1%.

Take `O=C(NCCCn1ccnc1)c1cc(-c2ccc(Br)cc2)nc2ccccc12` [CBK262645]: the viability at 28.5 h, 10 µM was determined as 84.8%.

As for `CCN1CCN(Cc2cc(Cl)ccc2OCCCn2ccnc2)CC1` [CBK306990], the viability at 28.5 h, 10 µM was 83.2%.

On to `CC1(C)COC(=O)N1C1CCN(C(=O)c2ccno2)CC1` [CBK044383], for which the viability at 28.5 h, 10 µM was found to be 95.7%.

`CC(C)n1nccc1NC(=O)CCn1ccnc1-c1ccccc1` [CBK281536]: the viability at 28.5 h, 10 µM came out at 88.3%.

In the case of `CSCCCN1C(=O)CN(Cc2ccccc2)C1=O` [CBK162363], the viability at 28.5 h, 10 µM came to 91.4%.

For `O=C(CCN1C(=O)COc2ccccc21)NCCCN1CCN(c2ccccc2F)CC1` [CBK294469], the viability at 28.5 h, 10 µM came out at 102%.

For the molecule `O=C(COc1ccccc1)Nc1nnc(-c2ccccc2)o1` [CBK287599], the viability at 28.5 h, 10 µM is 99.8%.

Consider `COc1cccc2c3c([nH]c12)C1(CCCN(CCc2ccc(F)cc2)C1)NCC3` (stereo not drawn) [CBK039251], for which the viability at 28.5 h, 10 µM turned out to be 97.9%.

On to `Cc1cc(C)cc(OCc2nnc(SCC(=O)N3CCN(c4ccccc4)CC3)o2)c1` [CBK268012], for which the viability at 28.5 h, 10 µM was found to be 96.7%.

Consider `O=S(=O)(NC1CCCCC1n1cc(-c2ccccc2)nn1)c1ccc(Cl)cc1` (stereo not drawn) [CBK266391], for which the viability at 28.5 h, 10 µM worked out at 99%.

Regarding `COC(=O)c1ccc(CC(C)C)nc1SC1=NCCCN1` [CBK005294C], the viability at 28.5 h, 10 µM amounted to 94.1%.

`Cc1onc(-c2ccccc2Cl)c1C(=O)Nc1ccc(S(=O)(=O)NCC2CCCO2)cc1` (stereo not drawn) [CBK267536]: the viability at 28.5 h, 10 µM was found to be 88.9%.

Turning to `CCN1/C(=C/C(=C/c2sc3ccccc3[n+]2CCCS(=O)(=O)[O-])OC)Sc2ccccc21` [CBK278203], the viability at 28.5 h, 10 µM was found to be 99.7%.

Turning to `O=C(Nc1ccc(F)cc1)c1[nH]c2ccccc2c1NS(=O)(=O)c1ccc(C(F)(F)F)cc1[N+](=O)[O-]` [CBK050090], the viability at 28.5 h, 10 µM came to 90.1%.

For the molecule `FC(F)(F)C1CN(C2CCCCC2)C(=S)S1` (stereo not drawn) [CBK009719], the viability at 28.5 h, 10 µM came to 84.2%.

On to `COc1ccc(-c2cc(C(F)(F)F)nc(SCC(=O)Nc3ccc4c(c3)OCO4)n2)cc1OC` [CBK266169], for which the viability at 28.5 h, 10 µM was determined as 101%.

For the molecule `COC(=O)c1c(NC(=O)C(=O)NCc2ccccn2)sc2c1CCCC2` [CBK269505], the viability at 28.5 h, 10 µM was 95.2%.

For the molecule `NC(=O)C1CCN(C2=NC(=O)/C(=C/c3cn(-c4ccccc4)nc3-c3cccs3)S2)CC1` [CBK265179], the viability at 28.5 h, 10 µM amounted to 97.3%.

As for `CSCCC(NC=C1C(=O)CC(C)(C)CC1=O)C(=O)O` (stereo not drawn) [CBK261311], the viability at 28.5 h, 10 µM amounted to 92.9%.

On to `Cc1ccc2c(c1)C(c1c[nH]c3ccccc13)(c1c[nH]c3ccccc13)C(=O)N2C` [CBK266401], for which the viability at 28.5 h, 10 µM turned out to be 103%.

For `CN1CCN(C(=O)CC[C@@H]2CNC(=O)[C@@H]3C[C@H](NC(=O)c4ccccc4)CN23)CC1` [CBK289014], the viability at 28.5 h, 10 µM came to 86.7%.

With `Cc1ccc(S(=O)(=O)N/C(=N/C(C)C(=O)O)c2ccccc2)cc1` (stereo not drawn) [CBK263099], the viability at 28.5 h, 10 µM came to 92.2%.

For the molecule `NS(=O)(=O)c1ccc(CCNC(=O)CN2C(=O)c3ccccc3C2=O)cc1` [CBK264377], the viability at 28.5 h, 10 µM was found to be 96%.

With `COc1cc(/C=N/NC(=O)Cc2nnc(N)s2)cc(OC)c1OC` [CBK262027], the viability at 28.5 h, 10 µM was 109%.

For `Fc1ccc2nc(Nc3nc(-c4ccncc4)cs3)sc2c1` [CBK287487], the viability at 28.5 h, 10 µM is 105%.

Consider `Cc1cc(C)nc(Sc2nnc(-c3ccc(C)c(S(=O)(=O)N4CCOCC4)c3)c3ccccc23)n1` [CBK264400], for which the viability at 28.5 h, 10 µM is 105%.

Turning to `Cc1nc(SCc2ccccc2)nc(O)c1CC(=O)O` [CBK264203], the viability at 28.5 h, 10 µM turned out to be 96.8%.

As for `Cc1ccn2ncc(C(=O)N3CCCCCC3c3ccco3)c2n1` (stereo not drawn) [CBK304015], the viability at 28.5 h, 10 µM was 111%.

With `Cc1noc(CN2CCN(CCc3ccc4c(c3)CCO4)CC2)n1` [CBK305208], the viability at 28.5 h, 10 µM was found to be 102%.

For the molecule `OCCN1CCN(c2cncc(-c3cccc(OC(F)(F)F)c3)n2)CC1` [CBK065941], the viability at 28.5 h, 10 µM was 108%.

In the case of `O=S(=O)(c1ccc(C(F)(F)F)cc1Cl)N1CCN(Cc2c[nH]nc2-c2cccs2)CC1` [CBK062864], the viability at 28.5 h, 10 µM came out at 108%.

As to `O=C(c1ccc(CO)o1)N1CCn2cc(C(F)(F)F)nc2C1` [CBK283914], the viability at 28.5 h, 10 µM was determined as 94%.

Take `Cn1nccc1CNc1ncn(CC(=O)N2CCCCCC2)n1` [CBK306454]: the viability at 28.5 h, 10 µM turned out to be 90%.

Take `COc1cc(CNc2ccc(N3CCOCC3)cc2)ccc1OCc1ccc(Cl)cc1Cl` [CBK074516]: the viability at 28.5 h, 10 µM came to 93.1%.

Consider `COc1ccc([C@@]23CCCN(C(=O)Nc4ccc(SC(F)(F)F)cc4)C[C@@H]2N(C)CC3)cc1OC` [CBK056681T], for which the viability at 28.5 h, 10 µM was 92.2%.

As to `CCOc1cccc(N2C(=O)NC(=O)/C(=C/NCCc3c[nH]c4ccccc34)C2=O)c1` [CBK265541], under “bulk resorufin, single well”, the viability at 28.5 h, 10 µM amounted to 106%.

Consider `COc1cc(/C=C2\C(=O)NC(=O)N(c3cc(C)ccc3C)C2=O)ccc1O` [CBK264161], for which the viability at 28.5 h, 10 µM (bulk resorufin, single well) came to 91%.

On to `CCC(NC(=O)Nc1cc(N2CCOCC2)ccc1Cl)c1cnn(C)c1` (stereo not drawn) [CBK306844], for which the viability at 28.5 h, 10 µM is 114%.

Turning to `Cc1c(C)n(Cc2ccco2)c2ncnc(NCCC(=O)O)c12` [CBK307564], the viability at 28.5 h, 10 µM came to 86.8%.

Turning to `Cc1nc2ccccc2nc1CSc1nnc(Cc2ccccc2)n1-c1ccccc1` [CBK268360], the viability at 28.5 h, 10 µM came out at 104%.

Regarding `CN1C(=O)N(C)C(=O)C(Cc2ccccn2)(Cc2ccccn2)C1=O` [CBK269577], the viability at 28.5 h, 10 µM (bulk resorufin, single well) was 97.5%.

Consider `CC(C)(C)S(=O)(=O)c1ccc(C(=O)O)s1` [CBK260880], for which the viability at 28.5 h, 10 µM was 91.4%.

As to `Cn1cc(CN2CCCN(C(=O)CCCc3ccccn3)CC2)cn1` [CBK305347], the viability at 28.5 h, 10 µM was found to be 87.3%.

Consider `N=c1n(CCN2CCCCC2)c2ccccc2n1CC(O)c1cccs1` (stereo not drawn) [CBK262908C], for which the viability at 28.5 h, 10 µM was 94.9%.

In the case of `Cc1cc(C)n(CC(=O)Nc2nc(CN3CCC(C)CC3)cs2)n1` [CBK305592], the viability at 28.5 h, 10 µM worked out at 101%.

`COc1cccc2c1CCN=C2C[C@H]1CN(C(=O)C2CC2)CC[C@H]1CC(=O)O` [CBK289164]: the viability at 28.5 h, 10 µM stood at 94.5%.

As for `CCc1nc2cc(NC(=O)c3cc(C4CC4)nn3C)ccc2n1C` [CBK283275], the viability at 28.5 h, 10 µM worked out at 85.8%.

For `O=C(Nc1ccccc1N1CCNCC1)c1cccs1` [CBK029443T], the viability at 28.5 h, 10 µM stood at 95.5%.

Regarding `Cc1cc2c(cc3c(=O)n(CC(=O)NC4CCCC4)nc(C)n32)s1` [CBK284072], the viability at 28.5 h, 10 µM worked out at 96.9%.

`N#Cc1c(Cl)cccc1Oc1ccc(S(=O)(=O)Nc2cccc(C(=O)O)c2)cc1` [CBK155718]: the viability at 28.5 h, 10 µM came out at 108%.

Regarding `COc1ccc([C@@]23CC[C@@H](NC(=O)Nc4cccc(-c5cnco5)c4)C[C@@H]2N(C)CC3)cc1OC` [CBK059338T], the viability at 28.5 h, 10 µM was determined as 92.3%.

In the case of `Cc1sc2nc(SCc3cc(O)[nH]n3)nc(N)c2c1C` [CBK264585], the viability at 28.5 h, 10 µM stood at 88.6%.

Regarding `Cc1ccc2[nH]c(SCC(=O)Nc3ccc(C(=O)O)cc3)nc2c1` [CBK297526], the viability at 28.5 h, 10 µM came to 85.7%.

Consider `CCn1c(=O)n(CC(=O)N2CCC(C)CC2)c2cccnc21` [CBK283895], for which the viability at 28.5 h, 10 µM was 95.9%.

Consider `Cc1n[nH]c(C)c1CC(=O)NC(Cc1cccs1)c1ccccn1` (stereo not drawn) [CBK285208], for which the viability at 28.5 h, 10 µM was found to be 111%.

Regarding `CN1CCN(C(=O)c2cccc(-c3ncc(OCC(F)(F)F)nc3N)c2)CC1` [CBK145196], the viability at 28.5 h, 10 µM came out at 91.3%.

For the molecule `O=C(OCc1ccc([N+](=O)[O-])cc1)C1CCN(S(=O)(=O)c2cccc3cccnc23)CC1` [CBK264430], the viability at 28.5 h, 10 µM was determined as 115%.

Turning to `O=C(Cc1ccc(NS(=O)(=O)c2cc(Cl)c(Cl)s2)nc1)N1CCOCC1` [CBK003790], the viability at 28.5 h, 10 µM was 96.5%.

`O=C(O)c1cccc(Cn2c(C3CC3)n[nH]c2=S)c1` [CBK288401]: the viability at 28.5 h, 10 µM turned out to be 87.1%.

As for `CC(=O)Nc1ccc2nc(NC(=O)c3ccc(C#N)cc3)sc2c1` [CBK287309], the viability at 28.5 h, 10 µM worked out at 92.4%.

Take `CCN(Cc1ccccc1)Cc1c(O)ccc2c(=O)c(-c3ccccc3OC)c(C(F)(F)F)oc12` [CBK265839]: the viability at 28.5 h, 10 µM turned out to be 90%.

Consider `Cc1cnc(NC(=O)N2CCOC(c3ccc(F)cc3F)C2)s1` (stereo not drawn) [CBK304126], for which the viability at 28.5 h, 10 µM worked out at 88.5%.
